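Following 48 hours of exposure in 96-well plates, responses at five concentrations were used to interpolate endpoints linearly. The concentration for 50% growth inhibition is given as GI50. TGI marks complete inhibition of growth.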
How the values were obtained:
Experiment in all cases: inhibition of tumour cell growth, NCI panel, 48 h
SF-295 CNS = test system: SF-295 CNS
DU-145 prostate = test system: DU-145 prostate
UO-31 renal = test system: UO-31 renal
HOP-92 NSCLC = test system: HOP-92 NSCLC
HOP-62 NSCLC = test system: HOP-62 NSCLC
SW-620 colon = test system: SW-620 colon
EKVX NSCLC = test system: EKVX NSCLC
KM12 colon = test system: KM12 colon
SF-539 CNS = test system: SF-539 CNS
NCI-H460 lung = test system: NCI-H460 lung
SK-MEL-28 melanoma = test system: SK-MEL-28 melanoma
A498 renal = test system: A498 renal
BT-549 breast = test system: BT-549 breast
A549 NSCLC = test system: A549 NSCLC
MDA-MB-231 breast = test system: MDA-MB-231 breast
CAKI-1 renal = test system: CAKI-1 renal
MCF7 breast = test system: MCF7 breast
NCI-H522 lung = test system: NCI-H522 lung
786-0 renal = test system: 786-0 renal
UACC-62 melanoma = test system: UACC-62 melanoma
PC-3 prostate = test system: PC-3 prostate
SK-MEL-2 melanoma = test system: SK-MEL-2 melanoma
RXF 393 renal = test system: RXF 393 renal
MDA-MB-435 = test system: MDA-MB-435
UACC-257 melanoma = test system: UACC-257 melanoma
M14 melanoma = test system: M14 melanoma
TK-10 renal = test system: TK-10 renal
HT29 colon = test system: HT29 colon
MALME-3M melanoma = test system: MALME-3M melanoma
LOX IMVI melanoma = test system: LOX IMVI melanoma
OVCAR-5 ovarian = test system: OVCAR-5 ovarian
ACHN renal = test system: ACHN renal
SNB-75 CNS = test system: SNB-75 CNS
SK-MEL-5 melanoma = test system: SK-MEL-5 melanoma
U251 CNS = test system: U251 CNS
SF-268 CNS = test system: SF-268 CNS
HCC-2998 colon = test system: HCC-2998 colon
SR leukemia = test system: SR leukemia
HS 578T breast = test system: HS 578T breast
SK-OV-3 ovarian = test system: SK-OV-3 ovarian
COLO 205 colon = test system: COLO 205 colon
OVCAR-4 ovarian = test system: OVCAR-4 ovarian
OVCAR-3 ovarian = test system: OVCAR-3 ovarian
HCT-116 colon = test system: HCT-116 colon
HCT-15 colon = test system: HCT-15 colon
T-47D breast = test system: T-47D breast

## CCNCCNc1cc(-c2ccc(Cl)c(Cl)c2)c(C#N)c2nc3ccccc3n12
SF-295 CNS
  GI50: 1810 nM
  TGI: 3240 nM
DU-145 prostate
  GI50: 1440 nM
  TGI: 2760 nM
UO-31 renal
  GI50: 1600 nM
  TGI: 3120 nM
HOP-92 NSCLC
  GI50: 1670 nM
  TGI: 3280 nM
HOP-62 NSCLC
  GI50: 1620 nM
  TGI: 3180 nM
SW-620 colon
  GI50: 578 nM
  TGI: 2070 nM
EKVX NSCLC
  GI50: 1750 nM
  TGI: 3330 nM
KM12 colon
  GI50: 1600 nM
  TGI: 3150 nM
SF-539 CNS
  GI50: 224 nM
  TGI: 580 nM
NCI-H460 lung
  GI50: 485 nM
  TGI: 1910 nM
SK-MEL-28 melanoma
  GI50: 1900 nM
  TGI: 3540 nM
A498 renal
  GI50: 1380 nM
  TGI: 2880 nM
BT-549 breast
  GI50: 1540 nM
  TGI: 2900 nM
A549 NSCLC
  GI50: 1430 nM
  TGI: 3010 nM
MDA-MB-231 breast
  GI50: 1210 nM
  TGI: 2710 nM
CAKI-1 renal
  GI50: 1560 nM
  TGI: 2900 nM
MCF7 breast
  GI50: 1010 nM
  TGI: 2460 nM
NCI-H522 lung
  GI50: 1320 nM
  TGI: 2800 nM
786-0 renal
  GI50: 1660 nM
  TGI: 3180 nM
UACC-62 melanoma
  GI50: 1820 nM
  TGI: 3560 nM
PC-3 prostate
  GI50: 1660 nM
  TGI: 3190 nM
SK-MEL-2 melanoma
  GI50: 1580 nM
  TGI: 3070 nM
RXF 393 renal
  GI50: 1500 nM
  TGI: 2940 nM
MDA-MB-435
  GI50: 1700 nM
  TGI: 3140 nM
UACC-257 melanoma
  GI50: 1890 nM
  TGI: 3520 nM
M14 melanoma
  GI50: 1720 nM
  TGI: 3240 nM
TK-10 renal
  GI50: 1690 nM
  TGI: 3110 nM
HT29 colon
  GI50: 369 nM
  TGI: 1420 nM
MALME-3M melanoma
  GI50: 1760 nM
  TGI: 3410 nM
LOX IMVI melanoma
  GI50: 1210 nM
  TGI: 2530 nM
OVCAR-5 ovarian
  GI50: 1870 nM
  TGI: 3550 nM
ACHN renal
  GI50: 1390 nM
  TGI: 2870 nM
SNB-75 CNS
  GI50: 1460 nM
  TGI: 2960 nM
SK-MEL-5 melanoma
  GI50: 1710 nM
  TGI: 3120 nM
U251 CNS
  GI50: 757 nM
  TGI: 2150 nM
SF-268 CNS
  GI50: 1710 nM
  TGI: 3330 nM
HCC-2998 colon
  GI50: 1690 nM
  TGI: 3210 nM
SR leukemia
  GI50: 287 nM
  TGI: > 100000 nM
HS 578T breast
  GI50: 1900 nM
  TGI: 4430 nM
SK-OV-3 ovarian
  GI50: 1790 nM
  TGI: 3230 nM
COLO 205 colon
  GI50: 421 nM
  TGI: 1630 nM
OVCAR-4 ovarian
  GI50: 1230 nM
  TGI: 2530 nM
OVCAR-3 ovarian
  GI50: 248 nM
  TGI: 580 nM
HCT-116 colon
  GI50: 278 nM
  TGI: 1080 nM
HCT-15 colon
  GI50: 629 nM
  TGI: 1920 nM
T-47D breast
  GI50: 1430 nM
  TGI: 3200 nM
